Test results as given in ChEMBL document CHEMBL1143026, “A synthetic method for diversification of the P1' substituent in phosphinic dipeptides as a tool for exploration of the specificity of the S1' binding pockets of leucine aminopeptidases” (Bioorg Med Chem, 2007).
Where “and” joins values, the source holds several entries; their conditions need not be identical. Equal entries are not always repeated. Calls of active or inactive are those of the source. The calls are words filed in the database; no cut-off is given here.

How the values were obtained:
[1] = Inhibition of pig kidney cytosolic leucine aminopeptidase; set-up: species or system Sus scrofa
[2] = Inhibition of pig kidney microsomal leucine aminopeptidase; set-up: species or system Sus scrofa
Sus scrofa = species: Sus scrofa; assay: Inhibition of pig kidney microsomal leucine aminopeptidase at 10 to 20 uM

Structure (SMILES) | Ki [1] | Ki [2] | Activity (Sus scrofa)
NCc1ccc(NC(CP(=O)(O)C(N)CCc2ccccc2)C(=O)O)cc1 (stereo unspecified) | 4.46 µM | 0.56 µM | –
NC(CCc1ccccc1)P(=O)(O)CC(NCc1ccc(CO)cc1)C(=O)O (stereo unspecified) | 4.21 µM and 1.42 µM | – | inactive
NC(CCc1ccccc1)P(=O)(O)CC(Nc1ccccc1)C(=O)O (stereo unspecified) | 0.57 µM and 0.45 µM | – | inactive
NC(CCc1ccccc1)P(=O)(O)CC(Nc1ccc(CO)cc1)C(=O)O (stereo unspecified) | 10.3 µM and 6.98 µM | 0.9 µM and 1.13 µM | –
NC(CCc1ccccc1)P(=O)(O)CC(NCc1ccccc1)C(=O)O (stereo in doubt; 6) | 12.4 µM | 1500 µM | –
NC(CCc1ccccc1)P(=O)(O)CC(NCc1ccccc1)C(=O)O (stereo in doubt; 6,F1) [listing 1 of 2 here] | 10.1 µM | – | –
NC(CCc1ccccc1)P(=O)(O)CC(NCc1ccccc1)C(=O)O (stereo in doubt; 6,F1) [listing 2 of 2 here] | – | – | inactive
NCc1ccc(CNC(CP(=O)(O)C(N)CCc2ccccc2)C(=O)O)cc1 (stereo in doubt; 8,F1) | 2.78 µM | 19.9 µM | –
NCc1ccc(CNC(CP(=O)(O)C(N)CCc2ccccc2)C(=O)O)cc1 (stereo in doubt; 8,F2) | 2.62 µM | 2.66 µM | –
